The term IC50 denotes the concentration that gives 50% inhibition.

Structures can show the parent of a compound that is named as a salt.

In the assay the target is T1, recombinant IRAK-4 kinase (Homo sapiens, UniProt Q9NWZ3).
T1 construct: purchased Millipore, USA
T1 sequence (Q9NWZ3 1-460): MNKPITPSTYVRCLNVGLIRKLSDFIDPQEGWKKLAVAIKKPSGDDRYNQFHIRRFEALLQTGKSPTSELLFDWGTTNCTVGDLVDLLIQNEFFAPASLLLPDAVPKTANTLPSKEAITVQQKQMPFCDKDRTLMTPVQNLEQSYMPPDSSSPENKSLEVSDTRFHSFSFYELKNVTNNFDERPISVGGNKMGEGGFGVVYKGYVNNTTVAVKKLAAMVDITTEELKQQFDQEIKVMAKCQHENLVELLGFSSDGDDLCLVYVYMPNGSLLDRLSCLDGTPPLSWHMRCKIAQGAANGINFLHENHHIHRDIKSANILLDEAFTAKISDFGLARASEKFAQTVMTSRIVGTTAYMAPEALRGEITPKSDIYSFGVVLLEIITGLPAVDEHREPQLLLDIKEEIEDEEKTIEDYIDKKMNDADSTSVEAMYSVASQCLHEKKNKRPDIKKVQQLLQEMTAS
Kind of assay: IRAK-4 Biochemical Assay (TR-FRET). The following applies: 30 min pre-incubation, 100 nM Biotin Histone H3, 20 μM ATP, read-out: IC50 values for IRAK4 activity.
In the case of `Cc1nn(C)c2cc(N3CCC(CO)CC3)c(NC(=O)c3coc(-c4ccnc(N)c4)n3)cc12` [Example 112, 2-(2-aminopyridin-4-yl)-N-(6-(4-(hydroxymethyl)piperidin-1-yl)-1,3-dimethyl-1H-indazol-5-yl)oxazole-4-carboxamide], the IC50 is below 50 nM.

On to `Cn1ncc2cc(NC(=O)c3coc(-c4ccnc(O)c4)n3)c(N3CCC(O)CC3)cc21` [Example 113, N-(6-(4-hydroxypiperidin-1-yl)-1-methyl-1H-indazol-5-yl)-2-(2-hydroxypyridin-4-yl)oxazole-4-carboxamide], for which the half-maximal inhibitory concentration (IC50) was below 50 nM.

With `Cc1cc(-c2nc(C(=O)Nc3cc4cnn(C)c4cc3N3CCC(O)CC3)co2)cc(C)n1` [Example 114, 2-(2,6-dimethylpyridin-4-yl)-N-(6-(4-hydroxypiperidin-1-yl)-1-methyl-1H-indazol-5-yl)oxazole-4-carboxamide], the IC50 is below 50 nM.

In the case of `Cc1cc(-c2nc(C(=O)Nc3cc4cnn(C)c4cc3N3CC[C@H](O)C3)co2)ccn1` [Example 115, (S)—N-(6-(3-hydroxypyrrolidin-1-yl)-1-methyl-1H-indazol-5-yl)-2-(2-methylpyridin-4-yl)oxazole-4-carboxamide], the IC50 was below 50 nM.

`COCCn1nc(C)c2cc(NC(=O)c3coc(-c4ccnc(C)c4)n3)c(N3CCC(O)CC3)cc21` [Example 116, N-(6-(4-hydroxypiperidin-1-yl)-1-(2-methoxyethyl)-3-methyl-1H-indazol-5-yl)-2-(2-methylpyridin-4-yl)oxazole-4-carboxamide]: the IC50 is below 50 nM.

On to `Cc1cc(-c2nc(C(=O)Nc3cc4cnn(CCO)c4cc3N3CCC(O)CC3)co2)ccn1` [Example 117, N-(1-(2-hydroxyethyl)-6-(4-hydroxypiperidin-1-yl)-1H-indazol-5-yl)-2-(2-methylpyridin-4-yl)oxazole-4-carboxamide], for which the IC50 was below 50 nM.

With `COCCn1cc2cc(NC(=O)c3coc(-c4ccnc(C)c4)n3)c(N3CCC(N)CC3)cc2n1` [Example 118, N-(6-(4-aminopiperidin-1-yl)-2-(2-methoxyethyl)-2H-indazol-5-yl)-2-(2-methylpyridin-4-yl)oxazole-4-carboxamide hydrochloride], the 50% inhibitory concentration (IC50) was below 50 nM.

As for `Cc1cc(-c2nc(C(=O)Nc3cc4cn(C)nc4cc3N3CCCCC3)co2)cc(C)n1` [Example 119, 2-(2,6-dimethylpyridin-4-yl)-N-(2-methyl-6-(piperidin-1-yl)-2H-indazol-5-yl)oxazole-4-carboxamide hydrochloride], the half-maximal inhibitory concentration (IC50) was below 50 nM.

Turning to `CN(C)c1cc(-c2nc(C(=O)Nc3cc4cn(C)nc4cc3N3CCCCC3)co2)ccn1` [Example 120, 2-(2-(dimethylamino)pyridin-4-yl)-N-(2-methyl-6-(piperidin-1-yl)-2H-indazol-5-yl)oxazole-4-carboxamide hydrochloride], the IC50 is below 50 nM.

In the case of `CNc1cc(-c2nc(C(=O)Nc3cc4cn(C)nc4cc3N3CCCCC3)co2)ccn1` [Example 122, N-(2-methyl-6-(piperidin-1-yl)-2H-indazol-5-yl)-2-(2-(methylamino)pyridin-4-yl)oxazole-4-carboxamide hydrochloride], the 50% inhibitory concentration (IC50) was below 50 nM.

On to `Cn1cc2cc(NC(=O)c3coc(-c4ccnc(NS(C)(=O)=O)c4)n3)c(N3CCC(O)CC3)cc2n1` [Example 123, N-(6-(4-hydroxypiperidin-1-yl)-2-methyl-2H-indazol-5-yl)-2-(2-(methylsulfonamido)pyridin-4-yl) oxazole-4-carboxamide], for which the IC50 is below 50 nM.

As for `Cc1cc(-c2nc(C(=O)Nc3cc4cn(C)nc4cc3N3CCC(O)CC3)co2)cc(C)n1` [Example 126, 2-(2,6-dimethylpyridin-4-yl)-N-(6-(4-hydroxypiperidin-1-yl)-2-methyl-2H-indazol-5-yl) oxazole-4-carboxamide], the IC50 was below 50 nM.

Take `CCOP(=O)(OCC)OC1CCN(c2cc3c(cnn3C)cc2NC(=O)c2coc(-c3ccnc(C)c3)n2)CC1` [Example 128, Diethyl (1-(1-methyl-5-(2-(2-methylpyridin-4-yl)oxazole-4-carboxamido)-1H-indazol-6-yl)piperidin-4-yl) phosphate]: the IC50 fell in the range of 50 to 100 nM.

For `CCOP(=O)(OCC)OCC1CCN(c2cc3nn(C)cc3cc2NC(=O)c2coc(-c3ccnc(C)c3)n2)CC1` [Example 129, Diethyl ((1-(2-methyl-5-(2-(2-methylpyridin-4-yl)oxazole-4-carboxamido)-2H-indazol-6-yl)piperidin-4-yl)methyl) phosphate], the concentration for half-maximal inhibition (IC50) is below 50 nM.

The values are drawn from patent US10160753B2, “Indazole compounds as IRAK4 inhibitors” (Aurigene Discovery Technologies Limited, priority 2014, dated 2018).
